Experiments:
[1] = Intravenous infusion of NO dissolved in liquid medium in L-NAME pre-treated rabbit; assay type: in vivo
Procedure: Experiments were approved by the local ethics committee on animal experimentation. A male New Zealand white rabbit was anesthetised, prepared and examined as in the protocol presented in Example 2. The rabbit was pre-treated with L-NAME (30 mg kg^−1) and received one infusion with NO-gas dissolved in normal saline and one with NO-gas dissolved in lipid emulsion ([…]®, Fresenius Kabi) through the catheter in the jugular vein without carrier flow. The infusion rate was for both liquids 0.5 ml kg^−1 min^−1. There was a recovery period between the two infusions for about 200 min.
The infusion liquids were created the same way. First the liquid was de-aerated for 20 min, in a gas-tight glass chamber with a rubber membrane with an inert gas; in this case helium gas, but nitrogen, argon etc could also be used. After this no oxygen were allowed to enter the liquid throughout the following procedure. The liquid was then purged with pure NO of a few minutes. The liquid was then collected through the rubber membrane in a gas-tight syringe with needle and from this syringe infused by means of syringe pump (864 Syringe Pump, Univentor LTD., Zejtun, Malta) in the jugular vein catheter.

[2] = Verification of NO donating capacity (1% sodium iodide in hot acetic acid, chemiluminescence); assay type: physicochemical
Description: Samples of eluents from the HPLC system were collected and analyzed for NO/nitrite content by injection into a reaction vessel containing 1% sodium iodide in hot acetic acid. Released nitric oxide was purged into a chemiluminescence analyzer system optimized for detection of nitric oxide by chemiluminescence reaction with ozone and determination of NO+ozone-generated excited NO2 product through counting of emitted photons.

[3] = Cederqvist et al., 1994; cited from earlier work
[4] = HPLC of commercial organic nitrites diluted in deoxygenated water versus NO-saturated water; assay type: physicochemical; conditions: for size of HPLC peak (UV max 225 nm), dilution in de-aerated NO saturated solutions: Novapak C8 or CN column
Procedure: Analysis of reaction mixtures and commercial organic nitrites and nitrates was made by high performance liquid chromatography (HPLC) using reverse phase chromatography on C8, C18 or CN columns (Waters Inc. NOVAPAK™ 4 μm particle size 8×100 mm radial compression columns) by means of two LDC Constametric pumps delivering a constant total flow of 1 ml per min, controlled by a computerized gradient control system generating a linear gradient of 0-100% methanol (elution solvent B) in 33 min, starting 1 min after injecting sample in the aqueous initial elution solvent (solvent A) which contained 5 mM ammonium formiate at pH 6. Separation of eluted compounds was determined by an LDC Spectromonitor variable UV monitor set at 210 nm, followed by a Pharmacia Wavescan wavelength scanning detector producing UV scans between 190 and 370 nm at 4 s intervals which were stored on a computer and analyzed after each HPLC run. The output from the LDC Spectromonitor was continuously recorded on a strip chart recorder.
HPLC: On all three Novapak columns and on the Thermo column a single peak of product, from the reaction between propanol and NO gas, eluted at a gradient concentration of 70-80% methanol. In the NOVAPAK C18 system this corresponded to an elution time of approximately 28 min (FIG. 12, panel C). […] When a standard sample of propyl nitrite (Karl Industries Inc., Aurora, Ohio, USA) diluted in a gas-type cylinder in deoxygenated (10 min He purging) water at 1:1000 was injected, a small peak at 28 min was obtained (FIG. 12, panel A), having an identical UV absorbance max at 225 nm. […] Similar results were obtained on the C8 and CN columns, a single retained peak was obtained from the reaction mixture consisting of propanol and NO, although at somewhat shorter retention times, compared with the C18 system.
Commercial samples of ethyl nitrite, butyl nitrite, and isobutyl nitrite (Sigma-Aldrich) were diluted anaerobically as above and injected onto the HPLC system, using either the Novapak C8 or CN column. Peaks with UV absorbance maxima of approximately 225 nm were obtained in all the samples, but at different retention times corresponding to the expected differences judged from the lipophilic chain length of the compounds. All these peaks were larger if the dilution of the organonitrite had been done in de-aerated NO saturated solutions. The respective peaks with UV max at 225 nm coincided with single similar peaks obtained by treating the corresponding alcohol (ethanol, butanol, isobutanol) with NO gas. This was taken as evidence that the corresponding organic mononitrite had formed.

venous gas embolism = assay: Treatment of venous gas embolism in an animal with inhibited NO production; assay type: in vivo
Description: The beneficial effects may be induction of vasodilation in the pulmonary vasculature, inhibition of aggregation of trombocytes and/or minor vasodilation in the whole or parts of the systemic circulation, for example in the coronary circulation.

[5] = before 30 mg kg^−1 throughout 10 min

## COC(=O)[C@@H](N)CCCNC(=N)N[N+](=O)[O-] [L-NAME, N^G-nitro-L-arginine methyl ester]
[1]; 30 mg kg^−1 throughout 10 min
  exhaled nitric oxide after L-NAME infusion: < 1 ppb
  heart rate (HR) after L-NAME infusion: 258 beats min^−1
  systemic mean arterial blood pressure (MAP) after L-NAME infusion: 128 cmH2O
[1]; L-NAME 30 mg kg^−1 throughout 10 min
  End-tidal CO2 and the relevant blood gas parameters: normal
[1]; [5]
  exhaled nitric oxide before L-NAME infusion: 19 ppb
  heart rate (HR) before L-NAME infusion: 274 beats min^−1
  systemic mean arterial blood pressure (MAP) before L-NAME infusion: 103 cmH2O

## O=[N+]([O-])OCC(CO[N+](=O)[O-])O[N+](=O)[O-] [Nitroglycerin, glyceryl trinitrate]
[2]
  release of NO by mild reduction treatment: did not yield a release of NO
[3]
  generation of NO in vivo: generate NO

## CCCCON=O [butyl nitrite]
[4]
  size of HPLC peak (UV max 225 nm), dilution in de-aerated NO saturated solutions: larger
[3]
  generation of NO in vivo: generate NO

## CCON=O [ethyl nitrite]
[4]
  size of HPLC peak (UV max 225 nm), dilution in de-aerated NO saturated solutions: larger
[3]
  generation of NO in vivo: generate NO

## [N]=O [inhaled nitric oxide, nitric oxide]
Venous gas embolism
  treatment of venous gas embolism: impossible to treat

## CC(C)CCON=O [isoamyl nitrite]
[3]
  generation of NO in vivo: generate NO

## CC(C)CO[N+](=O)[O-] [isobutyl nitrate]
[3]
  generation of NO in vivo: generate NO

## CC(C)CON=O [isobutyl nitrite]
[4]
  size of HPLC peak (UV max 225 nm), dilution in de-aerated NO saturated solutions: larger
[3]
  generation of NO in vivo: generate NO

## CCCON=O [propyl nitrite]
[4]; dilution 1:1000, Novapak C18
  size of 28 min HPLC peak, dilution in water saturated with NO gas vs deoxygenated water: 5-10 times
